Structures can show the parent of a compound that is named as a salt. No end group written: not given here.

System in one data set: not given
Settings: not given
The melting point is the temperature of the solid-liquid transition. `Nc1n[nH]c2cc(CN3CCN(Cc4cc5ccc(Cl)cc5s4)CC3=O)ccc12` [Example 874, 1-(3-Amino-1H-indazol-6-ylmethyl)-4-(6-chloro-benzo[b]thiophen-2-ylmethyl)-piperazin-2-one] returned a melting point of 246 to 248 °C. Still for that read-out and setting: to `N=C(N)c1ccc(CN2CCN(Cc3nc4ccc(Cl)cc4[nH]3)CC2=O)cc1` (as salt: salt) [Example 122, 4-[4-(6-Chloro-1H-benzoimidazol-2-ylmethyl)-2-oxo-piperazin-1-ylmethyl]-benzamidine] belongs 91 to 95 °C. For the molecule `C[C@H]1CN(Cc2ccc3c(N)ncnc3c2)C(=O)[C@H](C)N1S(=O)(=O)C=Cc1ccc(Cl)s1` [Example 667, (3S, 5S)-1-(4-Amino-quinazolin-7-ylmethyl)-4-[2-(5-chloro-thiophen-2-yl)-ethenesulfonyl]-3,5-dimethyl-piperazin-2-one], the melting point fell in the range of 218 to 221 °C.

With `Nc1n[nH]c2cc(CN3CCN(S(=O)(=O)c4cc5ccc(Cl)cc5s4)CC3=O)ccc12` [Example 876, 1-(3-Amino-1H-indazol-6-ylmethyl)-4-(6-chloro-benzo[b]thiophene-2-sulfonyl)-piperazin-2-one], the melting point fell in the range of 274 to 276 °C. On the same count and under the same terms, as for `C[C@@H]1CN(Cc2ccc3c(N)ncnc3c2)C(=O)[C@H](C)N1CC=Cc1ccc(Cl)s1` (as salt: trifluoroacetic acid salt) [Example 665, (3S,5R)-1-(4-Amino-quinazolin-7-ylmethyl)-4-[3-(5-chloro-thiophen-2-yl)-allyl]-3,5-dimethyl-piperazin-2-one], the figure is 67 to 70 °C. Consider `Nc1ncnc2cc(CN3CCC(Cc4nc5ccc(Cl)cc5[nH]4)CC3=O)ccc12` (stereo not drawn) [Example 816, 1-(4-Amino-quinazolin-7-ylmethyl)-4-(6-chloro-1H-benzoimidazol-2-ylmethyl)-piperidin-2-one], for which the melting point was 128 to 132 °C. On the same count and under the same terms, to `C[C@H]1CN(Cc2ccc3c(N)ncnc3c2)C(=O)[C@H](C)N1S(=O)(=O)c1cc2ccc(Cl)cc2s1` [Example 668, (3S, 5S)-1-(4-Amino-quinazolin-7-ylmethyl)-4-(6-chloro-benzo[b]thiophen-2-sulfonyl)-3,5-dimethyl-piperazin-2-one] belongs 224 to 226 °C; to `N=C(N)c1ccc(CN2CCC(Cc3nc4ccc(Cl)cc4[nH]3)CC2=O)cc1` (stereo not drawn) (as salt: salt) [Example 815, 4-[4-(6-Chloro-1H-benzoimidazol-2-ylmethyl)-2-oxo-piperidin-1-ylmethyl]-benzamidine], 105 to 110 °C. Same read-out and setting: as for `C[C@H]1CN(Cc2ccc3c(N)ncnc3c2)C(=O)[C@H](C)N1C(=O)C=Cc1ccc(Cl)s1` (as salt: salt) [Example 669, (3S, 5S)-1-(4-Amino-quinazolin-7-ylmethyl)-4-[3-(5-chloro-thiophen-2-yl)-acryloyl]-3,5-dimethyl-piperazin-2-one], the figure is 116 to 120 °C.

In a further data set the test system is human cultured vascular smooth muscle cells. The conditions noted are these: cited from earlier work.
“TAP: named only as TAP; cited (F Bono, et al.) where the mitogenic effect of Factor Xa is said to depend on its enzymatic activity (YNRLCIKPRDWIDECDSNEGGERAYFRNGKGGCDSFWICPEDHTGADYYSSYRDCFNACI; ends and bridges not checked; cysteine pairing not given here; UniProt P17726 1-60, looked up)”: the “mitogenesis of human cultured vascular smooth muscle cells” value is on record as “inhibited”.

Another data set has as its system rat cultured vascular smooth muscle cells. The conditions noted are these: cited from earlier work.
Consider “TAP: named only as TAP; cited (F Bono, et al.) where the mitogenic effect of Factor Xa is said to depend on its enzymatic activity (YNRLCIKPRDWIDECDSNEGGERAYFRNGKGGCDSFWICPEDHTGADYYSSYRDCFNACI; ends and bridges not checked; cysteine pairing not given here; UniProt P17726 1-60, looked up)”, for which the “mitogenesis of rat cultured vascular smooth muscle cells” value was “inhibited”.

In a further data set the test system is rabbit carotid artery. The conditions noted are these: rabbit carotid artery air-drying injury model, after vascular injury; cited from earlier work.
On to `CC(=N)N1CC[C@H](Oc2ccc([C@H](Cc3ccc4ccc(C(=N)N)cc4c3)C(=O)O)cc2)C1` [DX-9065a], for which the neointimal proliferation result was “less neointimal proliferation”.
